A value given as a limit tells only on which side of the number the result lay.

Broadly, the Kd is the equilibrium constant for the complex coming apart. A lower Kd goes with a tighter complex.

The target of series [1] is T1, α-syn fibrils (Homo sapiens, UniProt P37840). The series can be described thus: α-Synuclein fibril/ligand saturation binding assay. The note with it: for Selectivity α-syn v/s Aβ: from Kd Aβ and Kd α-syn.
The target in a further series is Aβ (1–40) fibrils (Homo sapiens, UniProt P05067). Kind of series: Aβ fibril/ligand saturation binding assay.
Series [2] can be described thus: Absorption/emission maxima and fluorescence quantum yield of free ligand in PBS. The format is physicochemical. The conditions noted are these: for Absmax / Emmax: free ligand in PBS.
Series [3] deals with T1, α-syn fibrils. Kind of series: Fluorescent properties of ligand-α-syn fibril complex. The format is physicochemical.
The next series addresses Aβ fibrils (Homo sapiens, UniProt P05067). The series can be described thus: Fluorescent properties of ligand-Aβ fibril complex. It counts as physicochemical.
Setting [4] is: Kd α-syn, Table 1, synthetic α-syn fibrils 2.5 μM, 1 hour, mean ± SD (n = 3).
Setting [5] is: Kd α-syn, Table 3 and text, α-syn fibrils, saturation binding, mean ± SD (n = 3).

Aβ fibrils, sequence (P05067 672-711): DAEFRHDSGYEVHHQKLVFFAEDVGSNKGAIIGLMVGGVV
Aβ (1–40) fibrils, sequence (P05067 672-711): as above

`CN(C)c1ccc(/C=C/C=C2\Cc3ccccc3C2=O)cc1` [compound 9, (E)-2-((E)-3-(4-(Dimethylamino)phenyl)allylidene)-2,3-dihydro-1H-inden-1-one] registered a Kd at α-syn fibrils [1] (setting [4]) of 38.4 ± 1.3 nM. Moreover, the Kd at α-syn fibrils [1] (setting [5]) was determined as 38.4 ± 1.3 nM. Moreover, the “Selectivity α-syn v/s Aβ” value on α-syn fibrils [1] was determined as 4.1 x. The same molecule came in with a Kd on Aβ (1–40) fibrils of 157 ± 5 nM. Besides, in series [2], the “Fluorescence quantum yield Free ligand” value worked out at 0.0059, the Absmax is reported as 450 and the Emmax is given as 589. At α-syn fibrils [3], the “Absmax Ligand + α-syn” value is given as 462, the “Emmax Ligand + α-syn” value is given as 610 and the “Fluorescence quantum yield Ligand + α-syn” value is 0.0805. Also, on Aβ fibrils, the “Absmax Ligand + Aβ” value stood at 460, the “Emmax Ligand + Aβ” value turned out to be 609 and the “Fluorescence quantum yield Ligand + Aβ” value is 0.1465.

At α-syn fibrils [1] (setting [4]), `O=C(O)c1ccc(-c2ccc(/C=C/C=C3C(=O)c4ccccc4C3=O)cc2)s1` [compound 35, (E)-5-(4-(3-(1,3-Dioxo-1,3-dihydro-2H-inden-2-ylidene)prop-1-en-1-yl)phenyl)thiophene-2-carboxylic acid] came in with a Kd of 74.2 ± 14.3 nM. The affinity on α-syn fibrils [1] (setting [5]), expressed as Kd, was 74.2 ± 14.3 nM. The “Selectivity α-syn v/s Aβ” value at α-syn fibrils [1] is recorded as 4.5 x. For the same molecule, the Kd at Aβ (1–40) fibrils amounted to 337 ± 11.7 nM. Further, in series [2], the “Fluorescence quantum yield Free ligand” value is 0.0097, the Absmax is reported as 414 and the Emmax worked out at 556. Also, on α-syn fibrils [3], the “Absmax Ligand + α-syn” value worked out at 425, the “Emmax Ligand + α-syn” value was found to be 601 and the “Fluorescence quantum yield Ligand + α-syn” value is 0.0878. Further, at Aβ fibrils, the “Absmax Ligand + Aβ” value came out at 437, the “Emmax Ligand + Aβ” value worked out at 595 and the “Fluorescence quantum yield Ligand + Aβ” value came out at 0.2058.

`COc1cc(/C=C/C=C2C(=O)c3ccccc3C2=O)ccc1O` [compound 20, (E)-2-(3-(4-Hydroxy-3-methoxyphenyl)allylidene)-1H-indene-1,3(2H)-dione] had a Kd on α-syn fibrils [1] (setting [4]) of 44.5 ± 6.1 nM. The Kd on α-syn fibrils [1] (setting [5]) came to 44.5 ± 6.1 nM. At α-syn fibrils [1], the “Selectivity α-syn v/s Aβ” value stood at 3.5 x. Further, the Kd at Aβ (1–40) fibrils is 154 ± 11.8 nM. Moreover, in series [2], the “Fluorescence quantum yield Free ligand” value amounted to 0.0061, the Absmax is listed as 402 and the Emmax came out at 572. In addition, on α-syn fibrils [3], the “Absmax Ligand + α-syn” value is on record as 440, the “Emmax Ligand + α-syn” value came to 603 and the “Fluorescence quantum yield Ligand + α-syn” value was 0.0482. Moreover, on Aβ fibrils, the “Absmax Ligand + Aβ” value is recorded as 438, the “Emmax Ligand + Aβ” value turned out to be 598 and the “Fluorescence quantum yield Ligand + Aβ” value turned out to be 0.1419.

Regarding `O=C1/C(=C\c2ccc(-c3ccc(CO)cc3)s2)Cc2ccccc21` [compound 37, (Z)-2-((5-(4-(Hydroxymethyl)phenyl)thiophen-2-yl)methylene)-2,3-dihydro-1H-inden-1-one], at Aβ (1–40) fibrils, binding was characterised by a dissociation constant (Kd) of 393 ± 64.4 nM. For the same molecule, in series [2], the “Fluorescence quantum yield Free ligand” value was 0.0063, the Absmax is listed as 431 and the Emmax came out at 524. Moreover, on Aβ fibrils, the “Absmax Ligand + Aβ” value is reported as 446, the “Emmax Ligand + Aβ” value amounted to 556 and the “Fluorescence quantum yield Ligand + Aβ” value was found to be 0.1074.

For the molecule `COc1cc(-c2ccc(/C=C3/Cc4ccccc4C3=O)s2)ccc1O` [compound 39, (Z)-2-((5-(4-Hydroxy-3-methoxyphenyl)thiophen-2-yl)methylene)-2,3-dihydro-1H-inden-1-one], binding on α-syn fibrils [1] (setting [4]) was characterised by a dissociation constant (Kd) of 93.1 ± 13.8 nM. Besides, the dissociation constant (Kd) at α-syn fibrils [1] (setting [5]) was 93.1 ± 13.8 nM. For the same molecule, on α-syn fibrils [1], the “Selectivity α-syn v/s Aβ” value was 2.8 x. On Aβ (1–40) fibrils, this molecule gave a Kd of 257 ± 20.3 nM. Also, in series [2], the “Fluorescence quantum yield Free ligand” value turned out to be 0.0031, the Absmax worked out at 403 and the Emmax was 575. Moreover, on α-syn fibrils [3], the “Absmax Ligand + α-syn” value amounted to 439, the “Emmax Ligand + α-syn” value worked out at 589 and the “Fluorescence quantum yield Ligand + α-syn” value was found to be 0.0435. In addition, on Aβ fibrils, the “Absmax Ligand + Aβ” value was 448, the “Emmax Ligand + Aβ” value was determined as 586 and the “Fluorescence quantum yield Ligand + Aβ” value amounted to 0.1377.

As to `COc1cc(/C=C/C=C2C(=O)c3ccccc3C2=O)cc(OC)c1O` [compound 21, (E)-2-(3-(4-Hydroxy-3,5-dimethoxyphenyl)allylidene)-1H-indene-1,3(2H)-dione], the Kd at α-syn fibrils [1] (setting [4]) amounted to 268 ± 11.7 nM. Moreover, in series [2], the Absmax was determined as 434 and the Emmax was 450.

`COc1cc(-c2ccc(/C=C/C=C3\Cc4ccccc4C3=O)cc2)ccc1O` [compound 29, (E)-2-((E)-3-(4'-Hydroxy-3'-methoxy-[1,1'-biphenyl]-4-yl)allylidene)-2,3-dihydro-1H-inden-1-one]: the affinity on α-syn fibrils [1] (setting [4]), expressed as Kd, was 66.7 ± 2 nM. Moreover, the “Selectivity α-syn v/s Aβ” value at α-syn fibrils [1] is recorded as 0.8 x. Further, the Kd at Aβ (1–40) fibrils is 52.5 ± 3.1 nM. Moreover, in series [2], the “Fluorescence quantum yield Free ligand” value turned out to be 0.0052, the Absmax is 397 and the Emmax is given as 551. For the same molecule, on α-syn fibrils [3], the “Absmax Ligand + α-syn” value came out at 428, the “Emmax Ligand + α-syn” value is 583 and the “Fluorescence quantum yield Ligand + α-syn” value came to 0.0766. On Aβ fibrils, the “Absmax Ligand + Aβ” value turned out to be 424, the “Emmax Ligand + Aβ” value is on record as 574 and the “Fluorescence quantum yield Ligand + Aβ” value worked out at 0.1543.

Molecule `O=C1C(=C/C=C/c2ccc(F)cc2)C(=O)c2ccccc21` [compound 18, (E)-2-(3-(4-Fluorophenyl)allylidene)-1H-indene-1,3(2H)-dione] came in with a Kd at α-syn fibrils [1] (setting [4]) greater than 2000 nM. In series [2], this molecule gave an Absmax of 332 and an Emmax of 421.

For `CN(C)c1ccc(/C=C/C=C2\CCc3ccccc3C2=O)cc1` [compound 24, (E)-2-((E)-3-(4-(Dimethylamino)phenyl)allylidene)-3,4-dihydronaphthalen-1(2H)-one], the affinity on α-syn fibrils [1] (setting [4]), expressed as Kd, was 97.6 ± 5.7 nM. The molecule also displayed a Kd at α-syn fibrils [1] (setting [5]) of 97.6 ± 5.7 nM. Moreover, the “Selectivity α-syn v/s Aβ” value at α-syn fibrils [1] is 1.7 x. For the same molecule, binding at Aβ (1–40) fibrils was put at a Kd of 165 ± 7.1 nM. For the same molecule, in series [2], the “Fluorescence quantum yield Free ligand” value came to 0.0063, the Absmax worked out at 397 and the Emmax came to 565. Besides, on α-syn fibrils [3], the “Absmax Ligand + α-syn” value was 452, the “Emmax Ligand + α-syn” value was determined as 582 and the “Fluorescence quantum yield Ligand + α-syn” value was 0.0668. Also, on Aβ fibrils, the “Absmax Ligand + Aβ” value is reported as 435, the “Emmax Ligand + Aβ” value amounted to 585 and the “Fluorescence quantum yield Ligand + Aβ” value came to 0.1377.

Regarding `CN(C)c1ccc(/C=C/C=C2\Cc3ccc(O)cc3C2=O)cc1` [compound 12, (E)-2-((E)-3-(4-(Dimethylamino)phenyl)allylidene)-6-hydroxy-2,3-dihydro-1H-inden-1-one], binding at α-syn fibrils [1] (setting [4]) was put at a Kd of 203 ± 15.9 nM. Moreover, in series [2], the Absmax is listed as 406 and the Emmax is on record as 614.

The molecule `O=C1C(=C/C=C/c2ccc(Br)cc2)C(=O)c2ccccc21` [compound 17, (E)-2-(3-(4-Bromophenyl)allylidene)-1H-indene-1,3(2H)-dione] showed a Kd at α-syn fibrils [1] (setting [4]) greater than 2000 nM. Moreover, in series [2], the Absmax is listed as 328 and the Emmax turned out to be 419.

At α-syn fibrils [1] (Kd α-syn (reported as no binding), α-syn fibrils, saturation binding), `O=C1/C(=C/C=C/c2ccc(Br)cc2)Cc2ccccc21` [compound 7, (E)-2-((E)-3-(4-Bromophenyl)allylidene)-2,3-dihydro-1H-inden-1-one] showed an equilibrium dissociation constant (Kd) of no less than 2000 nM. At α-syn fibrils [1] (setting [4]), this molecule returned an equilibrium dissociation constant (Kd) greater than 2000 nM. For the same molecule, in series [2], the Absmax was 332 and the Emmax is 430.

Molecule `O=C1/C(=C\c2ccc(-c3ccc(CO)cc3)s2)Cc2ccc(O)cc21` [compound 44, (Z)-6-Hydroxy-2-((5-(4-(hydroxymethyl)phenyl)thiophen-2-yl)methylene)-2,3-dihydro-1H-inden-1-one] returned a Kd at α-syn fibrils [1] (setting [4]) of 134 ± 19.2 nM. In series [2], this molecule displayed an Absmax of 412 and an Emmax of 545.
